# Reference: patent publication US20250255857A1, “METHODS OF TREATING ANDROGEN RECEPTOR-INDEPENDENT PROSTATE CANCER” (FOGHORN THERAPEUTICS INC., priority 2022, published 2025)
# Tests used:
# [1] = tested on: VCaP prostate xenograft tumors; assay: VCaP prostate xenograft tumor model (Example 1), tumor growth inhibition; format: in vivo, mice; conditions: VCaP CDX model, AR V7+; 30 mg/kg QD oral
# Protocol: (§1) Procedure: The experimental details of the studies, including tumor model, mouse strain, cell number implanted, vehicle used, days of treatment, treatment details, and average tumor size at start of dosing are outlined in Table 1. All study mice were purchased from Beijing Anikeeper Biotech and Matrigel was utilized as a basement membrane for all xenograft models. All xenografts were engrafted subcutaneously in the right flank region. The vehicles and Compound 1 (3 mg/kg) were administered twice weekly (BIW) intraperitoneally and enzalutamide (30 mg/kg) was administered orally once daily (QD), when applicable. Tumor volumes and body weights were measured over the course of study, and doses were adjusted by body weight to achieve the proper dose in terms of mg/kg.
# [2] = tested on: C42B prostate xenograft tumors; assay: C42B prostate xenograft tumor model, tumor growth inhibition; format: in vivo, mice; conditions: C42B CDX model, AR+; 30 mg/kg QD oral
# Protocol: as §1
# [3] = tested on: VCAP human prostate cancer tumor cells; assay: VCaP CRPC CDX model in castrated mice (Example 6), tumor growth inhibition and tolerability; format: in vivo; conditions: castrated mice
# Protocol: Procedure: The experimental details of the studies, including tumor model, mouse strain, cell number implanted, vehicle used, days of treatment, treatment details, and average tumor size at start of dosing are outlined in Table 7. All study mice were obtained and the studies were conducted at Pharmaron. Each mouse was inoculated subcutaneously on the right flank with the single cell suspension of VCAP human prostate cancer tumor cells (1×10^7) in 0.1 mL with Matrigel (1:1) in DMEM medium with 10% FBS for tumor development. The mice were castrated by removing the testes via a scrotal approach when the tumor volume reached 270 mm^3. After castration, the tumor volume decreased. Treatment started when the mean tumor volume grew back 265 mm^3. Based on tumor volume, mice were randomly assigned to respective groups using a computer-generated randomization procedure and treated according to the study design in Table 8.
# [4] = tested on: 22Rv1 prostate xenograft tumors; assay: 22Rv1 prostate xenograft tumor model, tumor growth inhibition; format: in vivo, mice
# Protocol: as §1
# [5] = tested on: LNCaP prostate xenograft tumors; assay: LNCaP prostate xenograft tumor model, tumor growth inhibition; format: in vivo, mice
# Protocol: as §1
# [6] = VCAP CRPC model, Enzalutamide at 30 mg/kg PO QD, 25 days
# [7] = VCAP CRPC model, Enzalutamide at 30 mg/kg PO QD, 25 days, Day 57
smiles,measurement,setting,value
"CNC(=O)c1ccc(N2C(=S)N(c3ccc(C#N)c(C(F)(F)F)c3)C(=O)C2(C)C)cc1F [enzalutamide, reference compound]",TGI with Enzalutamide 30 mg/kg,[1],46.8%
same,TGI with Enzalutamide 30 mg/kg,[2],68.5%
same,Tumor Growth % on Day 57,[3]; [6],238 ± 9%
same,Tumor Size on Day 57,[3]; [6],626 ± 28 mm3
same,T/C,[3]; [7],76.7%
same,TGI,[3]; [7],23.3%
same,TGI,"[3]; VCaP CRPC model, Compound 1 10 mg/kg, enzalutamide 30 mg/kg, day 57 after tumor inoculation",23.3%
same,TGI with Enzalutamide 30 mg/kg,"[4]; 22RV1 CDX model, AR V7+, 30 mg/kg QD oral",40.3%
same,TGI,"[4]; 22Rv1 CDX model, Compound 1 3 mg/kg BIW IP, enzalutamide 30 mg/kg QD oral",40.3%
same,TGI with Enzalutamide 30 mg/kg,"[5]; LNCaP CDX model, AR+, 30 mg/kg QD oral",92.1%
same,"tumor growth inhibition (TGI), in words","[5]; LNCaP xenograft, Compound 1 3 mg/kg BIW IP, enzalutamide 30 mg/kg QD oral",did lead to tumor growth inhibition
